The values that follow come from ChEMBL document CHEMBL1125952, “Prevention of human leukocyte elastase-mediated lung damage by 3-alkyl-4-azetidinones” (1991).

Assay [1] deals with T1, Neutrophil elastase (Homo sapiens) (UniProt P08246).
T1 sequence (whole entry): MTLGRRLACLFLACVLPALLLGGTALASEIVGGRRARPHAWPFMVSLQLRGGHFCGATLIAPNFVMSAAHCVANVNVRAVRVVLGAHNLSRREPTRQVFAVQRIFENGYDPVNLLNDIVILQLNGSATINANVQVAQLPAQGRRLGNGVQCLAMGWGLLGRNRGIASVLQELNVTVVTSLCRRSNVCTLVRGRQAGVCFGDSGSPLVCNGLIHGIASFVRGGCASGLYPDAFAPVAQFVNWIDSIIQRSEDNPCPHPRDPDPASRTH
The experiment in a line: Inhibition of human leukocyte elastase, expressed as biomolecular rate constant.

Assay [2] concerns the target T1, Neutrophil elastase (Homo sapiens). Description: Inhibition of human leukocyte elastase-induced lung hemorrhage in hamster, after 100 ug of compound administered intratracheally. It counts as functional, tissue-based.
The subject of assay [3] is Cricetinae gen. sp. Description: Compound at dose 20 ug was tested for percentage inhibition of HLE-induced Lung Hemorrhage in hamsters at 3 hr prior to installation of human leukocyte elastase. It counts as functional, Cricetulus griseus.
Assay [4] relates to Cricetinae gen. sp. Description: Compound at dose 20 ug was tested for percentage inhibition of HLE-induced Lung Hemorrhage in hamsters at 1 hr prior to installation of human leukocyte elastase. It counts as functional, Cricetulus griseus.
Assay [5] concerns Cricetinae gen. sp. Description: Effective dose administered intratracheally required to give 50% inhibition at 30 minutes prior to installation of human leukocyte elastase in hamster lung. The assay is classed as functional, Cricetulus griseus.
Assay [6] relates to Cricetinae gen. sp. The experiment in a line: Compound at dose 20 ug was tested for percentage inhibition of HLE-induced Lung Hemorrhage in hamsters at 4 hr prior to installation of human leukocyte elastase. It counts as functional, Cricetulus griseus.
In assay [7] the test system is Cricetinae gen. sp. Description: Compound at dose 20 ug was tested for percentage inhibition of HLE-induced Lung Hemorrhage in hamsters at 2 hr prior to installation of human leukocyte elastase. It counts as functional, Cricetulus griseus.

The inhibition is the relative decrease from the control value, in per cent. For the compound `CCOC(=O)N1C(=O)C(CC)C1OCC(=O)O` (trans isomer) [listing 1 of 2 here], the K obs / 1 in assay [1] was 467 M⁻¹ s⁻¹. The same compound yielded an inhibition in assay [2] of 98%.
Taken in the same sequence, the figures for `CCC1C(=O)N(C(=O)NCc2ccccc2)C1OCC(=O)O` (stereo not given) were 129 M⁻¹ s⁻¹ and 50%.
Taken in the same sequence, the figures for `CCOC(=O)N1C(=O)C(CC)C1S(=O)(=O)CC(=O)O` (trans isomer) were 5620 M⁻¹ s⁻¹ and 70%.
Taken in the same sequence, the figures for `CCOC(=O)N1C(=O)C(CC)C1OC(C)C(=O)O` (single isomer, unassigned; isomer A) were 346 M⁻¹ s⁻¹ and 71%.
In assay [1], `CC[C@H]1C(=O)N(S(=O)(=O)c2ccc(C)cc2)[C@H]1C(=O)N(C)CC(=O)O` showed a K obs / 1 of 110 M⁻¹ s⁻¹. The inhibition in assay [2] turned out to be 61%.
Taken in the same sequence, the figures for `CCOC(=O)N1C(=O)C(CC)C1OCCCC(=O)O` (trans isomer) were 1250 M⁻¹ s⁻¹ and 23%.
For `CCC1C(=O)N(S(=O)(=O)c2ccc(C)cc2)C1C(=O)OCC(=O)O` (stereo in doubt) the same measures were 9420 M⁻¹ s⁻¹ and 14%.
Taken in the same sequence, the figures for `CCC1C(=O)N(S(=O)(=O)c2ccc(C)cc2)C1C(=O)OCC(=O)O` (cis isomer) [listing 1 of 2 here] were 1550 M⁻¹ s⁻¹ and 73%.
As for `CCC1C(=O)N(C(=O)NCc2ccccc2)C1Oc1ccc(CC(=O)O)cc1` (trans isomer), the K obs / 1 in assay [1] came to 2070 M⁻¹ s⁻¹.
On the same count and under the same terms, with `CCOC(=O)N1C(=O)C(CC)C1Oc1ccc(C(=O)O)cc1` (trans isomer) the figure was 6350 M⁻¹ s⁻¹.
Turning to `CC[C@@H]1C(=O)N(S(=O)(=O)c2ccc(C)cc2)[C@H]1C(=O)N(C)CC(=O)O`, the K obs / 1 in assay [1] is 398 M⁻¹ s⁻¹. The inhibition in assay [2] came out at 74%.
Broadly, the Inhibition is the drop in the measured response relative to a control, in per cent. In assay [1], `CCOC(=O)N1C(=O)[C@H](CC)[C@H]1OCC(=O)O` came in with a K obs / 1 of 918 M⁻¹ s⁻¹. The Inhibition in the assay with Cricetinae gen. sp. [3] was 59%; in the assay with Cricetinae gen. sp. [4], 100%; in the assay with Cricetinae gen. sp. [6], -14%; in the assay on Cricetinae gen. sp. [7] it was 82%. Further, in assay [2], the inhibition was 99%. Moreover, in the assay with Cricetinae gen. sp. [5], the ED50 is 3.9 µg.
Take `CCOC(=O)N1C(=O)C(CC)C1OCC(=O)O` (trans isomer) [listing 2 of 2 here]: the Inhibition with Cricetinae gen. sp. [3] is given as 36%; in the assay with Cricetinae gen. sp. [4], 96%; with Cricetinae gen. sp. [6], -5%; with Cricetinae gen. sp. [7], 63%. The same compound yielded an ED50 in the assay with Cricetinae gen. sp. [5] of 6.3 µg.
In turn, `CC[C@H]1C(=O)N(C(=O)NCc2ccccc2)[C@@H]1Oc1ccc(C(=O)O)cc1` returned a K obs / 1 in assay [1] of 3840 M⁻¹ s⁻¹. The compound also showed an inhibition in assay [2] of 2%.
For `CCOC(=O)N1C(=O)C(CC)C1Oc1ccc(CC(=O)O)cc1` (trans isomer), in assay [1], the K obs / 1 amounted to 4100 M⁻¹ s⁻¹.
As to `CCOC(=O)N1C(=O)[C@@H](CC)[C@@H]1OCC(=O)O`, in assay [1], the K obs / 1 stood at 136 M⁻¹ s⁻¹. In addition, the Inhibition with Cricetinae gen. sp. [3] is 6%; in the assay with Cricetinae gen. sp. [4], 92%; with Cricetinae gen. sp. [6] it was -3%; with Cricetinae gen. sp. [7] it was 49%. Further, the inhibition in assay [2] is 86%. Also, in the assay on Cricetinae gen. sp. [5], the ED50 came out at 11.3 µg.
`CCC1C(=O)N(C(=O)OCc2ccccc2)C1OCC(=O)O` (trans isomer) gave a K obs / 1 in assay [1] of 955 M⁻¹ s⁻¹. The same compound came in with an inhibition in assay [2] of 51%.
For `CCC1C(=O)N(S(=O)(=O)c2ccc(C)cc2)C1C(=O)O` (cis isomer) the same measures were 93 M⁻¹ s⁻¹ and 80%.
As to `CCOC(=O)N1C(=O)C(CC)C1OCCC(=O)O` (trans isomer), in assay [1], the K obs / 1 was found to be 560 M⁻¹ s⁻¹. The compound also gave an inhibition in assay [2] of 31%.
For the compound `CC[C@@H]1C(=O)N(S(=O)(=O)c2ccc(C)cc2)[C@@H]1C(=O)N(C)CC(=O)O`, the K obs / 1 in assay [1] is 732 M⁻¹ s⁻¹. This compound also gave an inhibition in assay [2] of 94%.
Taken in the same sequence, the figures for `CC[C@@H]1C(=O)N(C(=O)NCc2ccccc2)[C@H]1Oc1ccc(C(=O)O)cc1` were 339 M⁻¹ s⁻¹ and 17%.
Take `CCOC(=O)N1C(=O)C(CC)C1[S+]([O-])CC(=O)O` (stereo not given): the K obs / 1 in assay [1] worked out at 1670 M⁻¹ s⁻¹. In assay [2], the inhibition was 71%.
In the case of `CCC1C(=O)N(S(=O)(=O)c2ccc(C)cc2)C1C(=O)N(C)CC(=O)O` (cis isomer), the K obs / 1 in assay [1] was 165 M⁻¹ s⁻¹. In addition, the Inhibition with Cricetinae gen. sp. [3] turned out to be 60%; in the assay on Cricetinae gen. sp. [4], 78%; in the assay on Cricetinae gen. sp. [6], 4%; in the assay with Cricetinae gen. sp. [7] it was 68%. The inhibition in assay [2] is 84%. The same compound gave an ED50 in the assay with Cricetinae gen. sp. [5] of 18.7 µg.
In assay [1], `CCOC(=O)N1C(=O)C(CC)C1OCC(=O)O` (cis isomer) came in with a K obs / 1 of 796 M⁻¹ s⁻¹. For the same compound, the inhibition in assay [2] turned out to be 81%.
In turn, `CCOC(=O)N1C(=O)C(CC)C1OC(C)C(=O)O` (single isomer, unassigned; isomer B) came in with a K obs / 1 in assay [1] of 158 M⁻¹ s⁻¹. The inhibition in assay [2] worked out at 81%.
Taken in the same sequence, the figures for `CCOC(=O)N1C(=O)C(CC)C1OCC(=O)NCC(=O)O` (stereo not given) were 1000 M⁻¹ s⁻¹ and 72%.
With `CCC1C(=O)N(S(=O)(=O)c2ccc(C)cc2)C1C(=O)OCC(=O)O` (cis isomer) [listing 2 of 2 here], the Inhibition in the assay on Cricetinae gen. sp. [3] is on record as 11%; with Cricetinae gen. sp. [4], 66%; in the assay with Cricetinae gen. sp. [6] it was 30%; in the assay with Cricetinae gen. sp. [7], 32%. In the assay on Cricetinae gen. sp. [5], this compound returned an ED50 of 24.6 µg.
`CCCC1C(=O)N(C(=O)OCC)C1OCC(=O)O` (stereo not given) had a K obs / 1 in assay [1] of 1500 M⁻¹ s⁻¹. The Inhibition in the assay with Cricetinae gen. sp. [3] was -17%; with Cricetinae gen. sp. [4], 83%; in the assay with Cricetinae gen. sp. [6], -2%; with Cricetinae gen. sp. [7], 31%. This compound displayed an inhibition in assay [2] of 88%. In the assay with Cricetinae gen. sp. [5], the ED50 is 6.3 µg.
For the compound `CCOC(=O)N1C(=O)C(CC)C1SCC(=O)O` (trans isomer), in assay [1], the K obs / 1 is 1090 M⁻¹ s⁻¹. For the same compound, the inhibition in assay [2] was determined as 56%.
Consider `CC[C@H]1C(=O)N(S(=O)(=O)c2ccc(C)cc2)[C@@H]1C(=O)O`, for which, in assay [1], the K obs / 1 was 377 M⁻¹ s⁻¹. Moreover, the Inhibition in the assay with Cricetinae gen. sp. [3] turned out to be 1%; with Cricetinae gen. sp. [4] it was 78%; in the assay with Cricetinae gen. sp. [6] it was 16%; in the assay with Cricetinae gen. sp. [7], 33%. For the same compound, the inhibition in assay [2] turned out to be 98%. In addition, the ED50 with Cricetinae gen. sp. [5] was 3 µg.
Take `CC[C@H]1C(=O)N(S(=O)(=O)c2ccc(C)cc2)[C@@H]1C(=O)N(C)CC(=O)O`: the K obs / 1 in assay [1] was found to be 271 M⁻¹ s⁻¹. Besides, in assay [2], the inhibition stood at 99%.
With `CO[C@H]1C(=O)N2C(C(=O)N3CCC[C@H]3C(=O)O)=C(COC(C)=O)CS(=O)(=O)[C@H]12`, the Inhibition with Cricetinae gen. sp. [3] is listed as 74%; with Cricetinae gen. sp. [4] it was 98%; with Cricetinae gen. sp. [6], -23%; in the assay with Cricetinae gen. sp. [7], 85%. The ED50 in the assay with Cricetinae gen. sp. [5] was determined as 3.1 µg.
